Measured values published in ChEMBL document CHEMBL3272096, “Semisynthetic cephalosporins. Synthesis and structure-activity relationships of 7-sulfonylacetamido-3-cephem-4-carboxylic acids” (1976).
Active and inactive are the calls of the source. No cut-off for these calls is given here.

Columns and labels:
Enterococcus faecalis = assay: Antibacterial activity against Streptococcus faecalis by two-fold agar dilution method; format: functional
Escherichia coli [1] = assay: Antibacterial activity against Escherichia coli 12140 infected in sc dosed mouse assessed as host protection administered at 1 and 5 hrs post-infection; format: functional; settings: Escherichia coli, 12140, sc; read-out: PD50
Klebsiella pneumoniae = assay: Antibacterial activity against Klebsiella pneumoniae 4200 by two-fold agar dilution method; format: functional
Salmonella paratyphi = assay: Antibacterial activity against Salmonella paratyphi ATCC 12176 by two-fold agar dilution method; format: functional, Salmonella enterica subsp. enterica serovar Paratyphi A; settings: Salmonella enterica
Escherichia coli [2] = assay: Antibacterial activity against Escherichia coli 12140 by two-fold agar dilution method; format: functional
Staphylococcus aureus [3] = assay: Antibacterial activity against Staphylococcus aureus 23390 by two-fold agar dilution method; format: functional, organism-based
Pseudomonas aeruginosa = assay: Antibacterial activity against Pseudomonas aeruginosa by two-fold agar dilution method; format: functional, organism-based
Klebsiella aerogenes = assay: Antibacterial activity against Enterobacter aerogenes ATCC 13048 by two-fold agar dilution method; format: functional
Staphylococcus aureus [4] = assay: Antibacterial activity against penicillin G-resistant Staphylococcus aureus HH 127 by two-fold agar dilution method; format: functional
Shigella flexneri = assay: Antibacterial activity against Shigella paradysenteriae HH 117 by two-fold agar dilution method; format: functional

Cn1cnnc1SCC1=C(C(=O)[O-])N2C(=O)[C@@H](NC(=O)CS(C)(=O)=O)[C@H]2SC1.[Na+]
MIC (Enterococcus faecalis): > 13 µg/mL
ED50 (Escherichia coli [1]): 22 mg/kg
MIC (Klebsiella pneumoniae): 6.2 µg/mL
MIC (Salmonella paratyphi): 3.1 µg/mL
MIC (Escherichia coli [2]): 6.2 µg/mL
Activity (Staphylococcus aureus [3]): Active
Activity (Pseudomonas aeruginosa): inactive
MIC (Klebsiella aerogenes): > 200 µg/mL
MIC (Staphylococcus aureus [4]): 3.1 µg/mL

CS(=O)(=O)CC(=O)N[C@@H]1C(=O)N2C(C(=O)[O-])=C(CSc3nnn[nH]3)CS[C@H]12.[Na+]
MIC (Enterococcus faecalis): > 13 µg/mL
ED50 (Escherichia coli [1]): 45 mg/kg
MIC (Klebsiella pneumoniae): 3.1 µg/mL
MIC (Salmonella paratyphi): 3.1 µg/mL
MIC (Escherichia coli [2]): 50 µg/mL
MIC (Shigella flexneri): 25 µg/mL
Activity (Staphylococcus aureus [3]): Active
Activity (Pseudomonas aeruginosa): inactive
MIC (Klebsiella aerogenes): > 200 µg/mL
MIC (Staphylococcus aureus [4]): 6.2 µg/mL

CC(=O)OCC1=C(C(=O)[O-])N2C(=O)[C@@H](NC(=O)CS(C)(=O)=O)[C@H]2SC1.[Na+]
MIC (Enterococcus faecalis): > 13 µg/mL
ED50 (Escherichia coli [1]): 62 mg/kg
MIC (Klebsiella pneumoniae): 13 µg/mL
MIC (Salmonella paratyphi): 13 µg/mL
MIC (Escherichia coli [2]): 13 µg/mL
MIC (Shigella flexneri): 13 µg/mL
Activity (Staphylococcus aureus [3]): Active
Activity (Pseudomonas aeruginosa): inactive
MIC (Klebsiella aerogenes): > 200 µg/mL
MIC (Staphylococcus aureus [4]): 3.1 µg/mL

Cn1nnnc1SCC1=C(C(=O)[O-])N2C(=O)[C@@H](NC(=O)CS(C)(=O)=O)[C@H]2SC1.[Na+]
MIC (Enterococcus faecalis): > 13 µg/mL
ED50 (Escherichia coli [1]): 7 mg/kg
MIC (Klebsiella pneumoniae): 1.6 µg/mL
MIC (Salmonella paratyphi): 0.8 µg/mL
MIC (Escherichia coli [2]): 1.6 µg/mL
MIC (Shigella flexneri): 1.6 µg/mL
Activity (Staphylococcus aureus [3]): Active
Activity (Pseudomonas aeruginosa): inactive
MIC (Klebsiella aerogenes): 25 µg/mL
MIC (Staphylococcus aureus [4]): 1.6 µg/mL

CC(C(=O)N[C@@H]1C(=O)N2C(C(=O)[O-])=C(CSc3nnnn3C)CS[C@H]12)S(C)(=O)=O.[Na+] (some centres not stated)
MIC (Enterococcus faecalis): > 13 µg/mL
ED50 (Escherichia coli [1]): 50 mg/kg
MIC (Klebsiella pneumoniae): 6.2 µg/mL
MIC (Salmonella paratyphi): 6.2 µg/mL
MIC (Escherichia coli [2]): 6.2 µg/mL
MIC (Shigella flexneri): 3.1 µg/mL
Activity (Staphylococcus aureus [3]): Active
Activity (Pseudomonas aeruginosa): inactive
MIC (Klebsiella aerogenes): 13 µg/mL
MIC (Staphylococcus aureus [4]): 3.1 µg/mL

Cc1nnc(SCC2=C(C(=O)[O-])N3C(=O)[C@@H](NC(=O)CS(C)(=O)=O)[C@H]3SC2)s1.[Na+]
MIC (Enterococcus faecalis): > 13 µg/mL
MIC (Klebsiella pneumoniae): 3.1 µg/mL
MIC (Salmonella paratyphi): 3.1 µg/mL
MIC (Escherichia coli [2]): 13 µg/mL
MIC (Shigella flexneri): 13 µg/mL
Activity (Staphylococcus aureus [3]): Active
Activity (Pseudomonas aeruginosa): inactive
MIC (Klebsiella aerogenes): > 200 µg/mL
MIC (Staphylococcus aureus [4]): 1.6 µg/mL

CC(=O)OCC1=C(C(=O)[O-])N2C(=O)[C@@H](NC(=O)CS(N)(=O)=O)[C@H]2SC1.[Na+]
MIC (Enterococcus faecalis): > 13 µg/mL
MIC (Klebsiella pneumoniae): 25 µg/mL
MIC (Salmonella paratyphi): 13 µg/mL
MIC (Escherichia coli [2]): 50 µg/mL
MIC (Shigella flexneri): 25 µg/mL
Activity (Staphylococcus aureus [3]): Active
Activity (Pseudomonas aeruginosa): inactive
MIC (Klebsiella aerogenes): 200 µg/mL
MIC (Staphylococcus aureus [4]): 1.6 µg/mL
